Assay [1] concerns human iPS cells (200-9 cells, TIG3/KOSM cells, 253G1 cells). Put plainly: Differentiation induction of human iPS cells into pancreatic hormone-producing cells (1), immunostaining. Type of assay: cell-based. As to conditions: 3 nM betagenin in step (D2), vs DMSO control, FIG. 3. From the text: As human iPS cells, used were 253G1 cells purchased from the cell bank at RIKEN, TIG3/KOSM cells provided by Dr. Mitani at Saitama Medical University, 200-9 cells, a clone in which a reporter gene is introduced into TIG3/KOSM cells. TIG3/KOSM cells were established at The National Institute of Advanced Industrial Science and Technology by introducing 4 factors (the OCT gene, the KLF gene, the SOX gene, the MYC gene) into TIG-3 cells using Sendai virus (Nishimura, K. et al., J. Biol. Chem., 286, pp. 4760-4771 (2011)).
These cells were cultured/maintained in an ES cell culture medium (DMEM/ham F12, 20% KSR, nonessential amino acid, 2 mM L-glutamine, 0.1 mM 2-mercaptoethanol, 5.2 mM NaOH) with added 4 ng/mL FGF-2 (Global Stem) and penicillin/streptomycin (Nacalai Tesque, Inc.) along with SNL76/7 cells (DS Pharma Biomedical) treated with mitomycin-C. CTK (0.25% trypsin, 1 mg/mL collagenase IV, 20% KSR, 1 mM CaCl2 in PBS) was used for cell detachment, and diluted at a ratio of 1:3 to 1:4 to perform passage culture.
Cells were detached with trypsin-EDTA 3 days before the start of differentiation induction, and plated at a cell density of 6.3×10^4 cells/cm2, and cultured for 1 day in an ES cell culture medium with added 10 μM Y-27632 (Wako), 4 ng/mL FGF-2 and penicillin/streptomycin along with STO cells treated with mitomycin-C. Subsequently, they were further cultured for 2 days in an ES cell culture medium with added 4 ng/mL FGF-2 and penicillin/streptomycin.
On the first day of the start of differentiation induction, the culture medium was replaced with a RPMI1640 culture medium (Nacalai Tesque, Inc.) with added 2% (v/v) FBS, 100 ng/mL activin A (SBI) and 3 μM CHIR99021 (Axon Medchem), and cultured for 1 day (Step (A2)).
Subsequently, the culture medium was replaced with a RPMI1640 culture medium with added 2% (v/v) FBS and 100 ng/mL activin A, and cultured for 2 days (Step (B2)). […]
Then, the proportion (%) of C-peptide positive cells or insulin positive cells was determined using an image analyzer CellInsight (Thermo Fisher Scientific).

Assay [2] deals with MIN6 cells (pancreatic β cell line). Put plainly: EdU cell proliferation assay, growth promotion of pancreatic β cells (2), versus culture supernatants. The assay is classed as cell-based. As to conditions: betagenin 1 nM, compared with IBCAP culture supernatant and Mock culture supernatant (0.5 μL/well), Mock taken as 1.0, FIG. 4. On the procedure: MIN6 cells provided by Dr. Miyazaki at Osaka University were used as a pancreatic β cell line. MIN6 cells were maintained in a DMEM culture medium with added 15% (v/v) of FBS.
A DMSO solution was prepared so that the concentration of chemically synthesized betagenin was 97% of purity, as a pancreatic hormone-producing cell growth-promoting agent.
First, HEK293T cells passaged in a DMEM culture medium with added 5% FBS and antibiotics (penicillin 100 U/mL, streptomycin […]) were plated on a 10 cm dish at 1×10^6 cells. On the next day, HEK293T cells were transfected with an expression vector (pCAGGS-IBCAP) constructed by ligating the gene encoding the IBCAP (=Betagenin) set forth in SEQ ID NO: 2 (which is corresponds to human TM4SF20, and hereinafter referred to “IBCAP.”) using FuGEN6 (Roche) to overexpression of IBCAP. The culture medium was replaced with an Opti-MEM culture medium 24 hours after that, and a culture supernatant was then collected another 24 hours after that, which was then used as an IBCAP culture supernatant for the subsequent experiments. […]
The incorporated EdU was visualized as red fluorescence using Alexa Flour™ 594, and observed with a fluorescence microscope (Carl Zeiss).

As to “betagenin: chemically synthesized peptide of SEQ ID NO: 1, fragment of human TM4SF20 from Position 170 to Position 229 (WRASSFHFDSEENKHRLIHFSVFLGLLLVGILEVLFGLSQIVIGFLGCLCGVSKRRSQIV; Peptide Sequence betagenin; listed as Homo sapiens)”, the “proportion of C-peptide positive cells or insulin positive cells” value in assay [1] (200-9 cells), in assay [1] (253G1 cells) and in assay [1] (TIG3/KOSM cells) was “increased” throughout. In assay [2], the “relative EdU fluorescence intensity” value was “significantly increased”.

The values are drawn from patent publication US9856304B2, “Peptide and application thereof” (Saitama Medical University, priority 2013, dated 2018).
